The subject of one series is Tetrabenazine ptosis. Put plainly: animal or person. As to conditions: for Therapeutical index (tetrabenazine ptosis antagonism): LD50 and ED50 tetrabenazine ptosis, mice; for ED50: Mus musculus, po, read-out: Tetrabenazine ptosis antagonism ED50. The format is in vivo. The procedure: (2) Tetrabenazine ptosis antagonism on mice
The tetrabenazine ptosis antagonism of the compounds are tested on groups consisting of 10 mice each. […] 30 minutes after the introduction of the active agent or the vehicle, 50 mg/kg of tetrabenazine (3-isobutyl-9,10-[…]-1,2,3,4,6,7-hexahydrobenzo[a]quinolizine-2-one) are administered, intraperitoneally, and the animals with ptosis are counted 30, 60, 90 and 120 minutes after the administration of the tetrabenazine.
Evaluation: the average ptosis value is calculated in each group, and the deviation from the average obtained for the control group (inhibition) is given in percentage. From the data obtained ED50 values are calculated.

Another series is described as follows: in vivo. As to conditions: mouse, mice, 7 days observation, Litchfield-Wilcoxon. The protocol:
(1) Acute toxicity on mice
The acute toxicity is determined on mice of both sex (CFLP breed, body weight 18 to 22 g). For each dosis 6 animals are employed. The compounds tested are administered orally in a volume of 20 ml/kg body weight. After the administration the animals are observed for 7 days. During this period the animals are fed with standard mouse feed and water ad libitum. The toxicity values are determined according to Litchfield-Wilcoxon's method.

The subject of a further series is Reserpine ptosis. In words: animal or person. It is filed as in vivo. As to conditions: for Therapeutical index (reserpine ptosis antagonism): LD50 and ED50 reserpine ptosis, mice; for ED50: Mus musculus, sc, 1 h, read-out: Reserpine ptosis antagonism ED50. The protocol:
(3) Reserpine ptosis antagonism on mice
Each group consisting of 10 mice are treated with 6 mg/kg of reserpine, subcutaneously. […] The animals with ptosis are counted 60 and 120 minutes after the administration of the compounds to be tested. Evaluation is carried out as given under point (2) above.

Another series has as its system nicotine lethality. In words: Inhibition of nicotine spasm / nicotine lethality. The format is in vivo, mice. As to conditions: for Therapeutical index (inhibition of nicotine lethality): LD50 and ED50 nicotine lethality; for ED50: Mus musculus, read-out: Inhibition of nicotine lethality ED50. The procedure:
(5) Inhibition of nicotine spasm
The test is carried out on mice according to Stone.

Another series concerns pentatetrazole spasm. Put plainly: animal or person. It is filed as in vivo. As to conditions: for Therapeutical index (inhibition of pentatetrazole spasm): LD50 and ED50 pentatetrazole spasm, mice; for ED50: Mus musculus, po, read-out: Inhibition of pentatetrazole spasm ED50. The protocol:
(6) Inhibition of pentatetrazole spasm
The test is performed on mice according to a modified method of Banziger and Hane.

For a further series, the system named is maximum electroshock. In words: animal or person. As to conditions: for Therapeutical index (inhibition of maximum electroshock): LD50 and ED50 electroshock, mice; for ED50: Mus musculus, po, read-out: Inhibition of maximum electroshock ED50. The format is in vivo. The protocol:
(7) Maximum inhibition of electroshock
The examination is carried out on mice weighing 20 to 25 g according to Swinyard. Electroshocks having the parameters of 50 Hz, 45 mA and 0.4 sec are employed by means of corneal electrodes. The complete inhibition of the tonic spasm of the lower limb extensor is taken as the criterium of the anticonvulsive action.

For another series, the system named is acetic acid writhing. Put plainly: animal or person. The format is in vivo. As to conditions: for Therapeutical index (analgesic effect, writhing test): LD50 and ED50 writhing test, mice; for ED50: Mus musculus, ip, read-out: Analgesic effect (writhing test) ED50. The protocol:
(9) Analgesic effect on mice (writhing test)
The test is carried out on mice according to the modified method of Newbould. 0.75 percent acetic acid is administered to the animals in a volume of 20 ml/kg, intraperitoneally, and the characteristic "writhing reactions" are counted for a period of 5 minutes, starting from the fifth minute after challenge. […] The inhibition relative to the control group is evaluated in percentage.
A general note: Writhing tests count abdominal constrictions after an irritant is injected.

For a further series, the system named is yohimbine toxicity. Put plainly: animal or person. To be noted: for Therapeutical index (potentiation of yohimbine toxicity): LD50 and ED50 yohimbine toxicity, mice; for ED50: Mus musculus, ip, read-out: Potentiation of yohimbine toxicity ED50. It is filed as in vivo. The procedure:
(4) Yohimbine toxicity test on mice.
The examination is performed according to Quinton's method. Each group of animals consisting of 10 mice are treated with the compounds to be tested and the vehicle without active agent, respectively. After one hour a sublethal dosage of yohimbine in a volume of 20 ml/kg body weight is administered to the test groups, intraperitoneally. The number of the dead animals is recorded 1 and 24 hours after the administration of yohimbine.

For another series, the system named is narcosis. Put plainly: Potentiation of narcosis. As to conditions: for Therapeutical index (potentiation of narcosis): LD50 and ED50 narcosis; for ED50: read-out: Potentiation of narcosis ED50.
The test system of a further series is intestinal peristalsis. Put plainly: animal or person. It is filed as in vivo. The protocol:
(8) Antiperistaltic effect on mice
The antiperistaltic effect of the compounds is examined on mice weighing 20 to 25 g according to the method of Stickney and co-workers. Each dosis of the compound to be tested is administered, orally, 60 minutes prior to the administration of a 10 percent carbon suspension. […] 20 minutes after the administration of the carbon suspension, the animals are sacrificed, and the length of the entire small intestine as well as that of the small intestine filled with carbon are determined. The inhibition in relation to the control is calculated in percentage. […] From the values thus-transformed ED50 values are calculated.

Setting [1] is: mice, oral, 1 hour before 1.4 mg/kg i.v. nicotine.

Read-outs that look alike come from different tables or passages of the source.

In the case of `Cl.Cl.N=C1SCCN1c1ccc(Cl)cc1N` [Compound 1, 3-(2-amino-4-chlorophenyl)-2-iminothiazolidine dihydrochloride], in the series with Tetrabenazine ptosis, the “Therapeutical index (tetrabenazine ptosis antagonism)” value came out at 39 and the ED50 (as a rule, the midpoint of the dose-response relation) was 18 mg/kg. For the same compound, the LD50 (usually the dose expected to kill half of the subjects tested) at 168 h in the series “in vivo” (oral) stood at 700 mg/kg. In addition, in the series on Reserpine ptosis, the “Therapeutical index (reserpine ptosis antagonism)” value came out at 14 and the ED50 is 50 mg/kg. For the same compound, the “Therapeutical index (inhibition of nicotine lethality)” value in the series on nicotine lethality (mice) was 5.6. Besides, the ED50 in the series with nicotine lethality (po) worked out at 25 mg/kg. Also, in the series on pentatetrazole spasm, the “Therapeutical index (inhibition of pentatetrazole spasm)” value was 31.8 and the median effective dose (ED50) is 22 mg/kg. Besides, in the series on maximum electroshock, the “Therapeutical index (inhibition of maximum electroshock)” value turned out to be 10 and the ED50 is 70 mg/kg.

With `CC1CN(c2ccc(Cl)cc2N)C(=N)S1.CCS(=O)(=O)O` (centres unmarked) [Compound 12, 3-(2-amino-4-chlorophenyl)-2-imino-5-methylthiazolidine ethanesulfonate], in the series on Tetrabenazine ptosis, the “Therapeutical index (tetrabenazine ptosis antagonism)” value is 83 and the 50% effective dose (ED50) worked out at 7.2 mg/kg. In addition, the “Therapeutical index (inhibition of nicotine lethality)” value with nicotine lethality (mice) was 100. In addition, the ED50 in the series on nicotine lethality (setting [1]) was found to be 6 mg/kg. Besides, in the series on acetic acid writhing, the “Therapeutical index (analgesic effect, writhing test)” value stood at 17.7 and the ED50 stood at 34 mg/kg. Besides, in the series with yohimbine toxicity, the “Therapeutical index (potentiation of yohimbine toxicity)” value turned out to be 13.3 and the ED50 amounted to 45 mg/kg. In addition, in the series on pentatetrazole spasm, the “Therapeutical index (inhibition of pentatetrazole spasm)” value was 40 and the ED50 was 15 mg/kg. Moreover, in the series with narcosis, the “Therapeutical index (potentiation of narcosis)” value stood at 14.0 and the ED50 was 41 mg/kg. In the series on maximum electroshock, the “Therapeutical index (inhibition of maximum electroshock)” value is recorded as 30 and the ED50 was 12 mg/kg.

In turn, `CCCC(C)(COC(N)=O)COC(N)=O` [Meprobamate, reference compound] yielded an LD50 at 168 h in the series “in vivo” (oral) of 1100 mg/kg. In addition, in the series on narcosis, the “Therapeutical index (potentiation of narcosis)” value was 4.2 and the ED50 was 260 mg/kg.

As for `CCS(=O)(=O)O.CCS(=O)(=O)O.N=C1SCCN1c1ccc(Cl)cc1N` [Compound 8, 3-(2-amino-4-chlorophenyl)-2-iminothiazolidine di(ethanesulfonate)], in the series with Tetrabenazine ptosis, the “Therapeutical index (tetrabenazine ptosis antagonism)” value stood at 667. Also, the ED50 in the series on Tetrabenazine ptosis came to 1.5 mg/kg; in the series on Reserpine ptosis, 20 mg/kg; in the series on nicotine lethality (setting [1]), 12 mg/kg; with intestinal peristalsis (Mus musculus, po, read-out: Inhibition of intestinal peristalsis ED50), 95 mg/kg; with acetic acid writhing it was 170 mg/kg; in the series with yohimbine toxicity, 22 mg/kg. In addition, the ED50 turned out to be 14 mg/kg in the series with pentatetrazole spasm and 80 mg/kg in the series on maximum electroshock. Further, the LD50 at 168 h in “in vivo” (oral) was determined as 1000 mg/kg. Besides, the “Therapeutical index (reserpine ptosis antagonism)” value in the series on Reserpine ptosis turned out to be 50. Besides, in the series on nicotine lethality (mice), the “Therapeutical index (inhibition of nicotine lethality)” value is given as 83.3. In addition, in the series on intestinal peristalsis (LD50 and ED50 intestinal peristalsis, mice), the “Therapeutical index (inhibition of intestinal peristalsis)” value was 10.5. For the same compound, the “Therapeutical index (analgesic effect, writhing test)” value in the series with acetic acid writhing is reported as 5.9. The “Therapeutical index (potentiation of yohimbine toxicity)” value with yohimbine toxicity turned out to be 45.5. In addition, in the series with pentatetrazole spasm, the “Therapeutical index (inhibition of pentatetrazole spasm)” value is on record as 71.4. In the series with maximum electroshock, the “Therapeutical index (inhibition of maximum electroshock)” value came to 12.5.

Take `CC1CSC(=N)N1c1ccc(Cl)cc1N.Cl.Cl` (centres unmarked) [Compound 3, 3-(2-amino-4-chlorophenyl)-2-imino-4-methylthiazolidine dihydrochloride]: in the series on Tetrabenazine ptosis, the “Therapeutical index (tetrabenazine ptosis antagonism)” value came to 67 and the ED50 was found to be 3 mg/kg. Moreover, the LD50 at 168 h in “in vivo” (po) turned out to be 200 mg/kg. In the series on Reserpine ptosis, the “Therapeutical index (reserpine ptosis antagonism)” value was determined as 67 and the median effective dose (ED50) came out at 3 mg/kg. For the same compound, the “Therapeutical index (inhibition of nicotine lethality)” value in the series on nicotine lethality (mice) is on record as 31.3. Moreover, in the series on nicotine lethality (setting [1]), the ED50 is 6.4 mg/kg. Also, in the series on pentatetrazole spasm, the “Therapeutical index (inhibition of pentatetrazole spasm)” value was 25.6 and the median effective dose (ED50) turned out to be 7.8 mg/kg. In addition, in the series on maximum electroshock, the “Therapeutical index (inhibition of maximum electroshock)” value worked out at 14.2 and the ED50 came to 14 mg/kg.

Values taken from US4665083A, “Iminothiazolidine derivatives” (priority 1984, dated 1987).
